Data: patent US6365407B1, “Culture medium composition useful for induction and proliferation of Taxus calli” (Council of Scientific & Industrial Research, priority 2001, dated 2002)

Columns and labels:
Format in all cases: cell-based, Himalayan Yew
[1] = tested on: callus tissues of Taxus baccata ssp. Wallichiana Zucc. Pilg.; assay: Growth of callus tissues on Picloram supplemented media; conditions: compared to media supplemented with other auxins reported earlier in the literature
Excerpt: (§1) Thus the combination of the modified medium of the present invention with Picloram, Sucrose, Phytagel and Antioxidants is novel and conducive for good callus growth and Taxane production in vitro. The details are described herewith. The present invention also provides a process for the enhanced production of taxol and/or taxane class of molecules in the said callus cultures which comprises inoculating any plant part of the Himalayan yew in the said culture medium for a period of 30 to 60 days in dark and at a temperature ranging between 24-26° C., to obtain the undifferentiated mass of callus culture, extracting the product by conventional solvent extraction methods and analyzing the compounds by HPLC. The stems, needles and seeds (for excision of embryos and endosperms) derived from mature trees of Taxus baccata ssp. Wallichiana Zucc. Pilg., Himalayan Yew were first washed in soap water for five min. followed by 95% ethanol treatment for one min. The alcohol was washed off with four washes of double distilled water. Surface sterilization was done with 0.1% HgCl2 for 10 min. under vacuum followed by six washes with sterile distilled water. Following this, the explants were inoculated aseptically in pre-sterilized plastic dishes (55-mm diameter) containing the medium of the present invention. The medium was prepared by mixing constituents mentioned in Tables 1 and 2. […]

[2] = tested on: callus lines of Taxus baccata ssp. Wallichiana Zucc. Pilg.; assay: Taxane/taxol production in callus cultures, HPLC analysis
Excerpt: Thus the combination of the modified medium of the present invention with Picloram, Sucrose, Phytagel and Antioxidants is novel and conducive for good callus growth and Taxane production in vitro. The details are described herewith. The present invention also provides a process for the enhanced production of taxol and/or taxane class of molecules in the said callus cultures which comprises inoculating any plant part of the Himalayan yew in the said culture medium for a period of 30 to 60 days in dark and at a temperature ranging between 24-26° C., to obtain the undifferentiated mass of callus culture, extracting the product by conventional solvent extraction methods and analyzing the compounds by HPLC. The stems, needles and seeds (for excision of embryos and endosperms) derived from mature trees of Taxus baccata ssp. Wallichiana Zucc. Pilg., Himalayan Yew were first washed in soap water for five min. followed by 95% ethanol treatment for one min. The alcohol was washed off with four washes of double distilled water. Surface sterilization was done with 0.1% HgCl2 for 10 min. under vacuum followed by six washes with sterile distilled water. Following this, the explants were inoculated aseptically in pre-sterilized plastic dishes (55-mm diameter) containing the medium of the present invention.
The culture medium and method described in the present invention was tested on ex-plants of a number of matures trees (80-100 year old) collected from the Himalayas. The present protocol is applicable to all the ex-plants derived from all these trees of varying ages and genotypes. A series of callus lines were initiated and currently various callus lines of different ages produce the desirable taxanes. A number of callus lines of different ages and derived from diverse parent trees were analyzed by HPLC for detection of taxane class of molecules. […] For each of the callus lines, extractions were performed at least on three different occasions and duplicate HPLC injections were made on separate days to check for the reproducibility of the results.

[3] = tested on: ex-plants of Taxus baccata ssp. Wallichiana Zucc. Pilg.; assay: Callus induction from ex-plants of mature trees; conditions: with or without antioxidants
Excerpt: as §1

For Nc1c(Cl)c(Cl)nc(C(=O)O)c1Cl [Picloram], the “enhanced growth rate of callus tissues” value [1] was 1.5-2.0 times, the “taxol content of callus” value ([2]; 0.5-2 mg.l^-1 picloram, callus lines derived from needles of tree nos. 2, 6 and 7) was 190-300 μg taxol/g dry weight and the “increase of taxol content in vitro than in vivo material” value ([2]; 0.5-2 mg.l^-1 picloram, needles 0.934 μg taxol/g dry weight) was 203 to 321 times. The “increase of taxol content compared to the in vivo material” value ([2]; 4-6 mg.l^-1 picloram, callus line 6, needles 0.0941 μg taxol/g dry weight) was 5300-6200 times, the “taxol content of callus” value ([2]; 4-6 mg.l^-1 picloram, callus line 6 derived from needles) was 500-590 μg taxol/g dry weight and the “enhanced Taxane production” value ([2]; calli grown in Picloram supplemented media, compared to media supplemented with other auxins) was 2.0-5.4 times. For the same molecule, the “Taxol production relative to in vivo needle tissues” value ([2]; highest producer callus) was about 5000 times, the “Callus formation observed in ex-plants” value ([3]; 0.5-2 mg.l^-1 picloram, tree nos. 2, 6 and 7) was 90% and the “Callus formation observed in ex-plants” value ([3]; 4-6 mg.l^-1 picloram, tree nos. 1, 3 and 4) was 90%.
